Measurements from patent publication US20250082625A1, “NOVEL THERAPY” (priority 2016, published 2025).
Entries after “also recorded” stand apart in the source; their conditions may differ.

Legend:
[1] = tested on: differentiated SH-SY5Y cells; experiment: Pre-treatment of differentiated SH-SY5Y nerve cells before CY17 infection (confocal imaging, ELISA); type: cell-based, human
Protocol: (§1) Cells were grown on 8-well chamber slides (6×10^4 cells/well, Thermo Fischer Scientific) or in 6-well plates (6×10^5 cells/well) for 16 hours in media supplemented with 10% FBS. Media were removed, and cells were washed with PBS before adding medium without FBS. Cells were infected with bacteria diluted to appropriate concentration in PBS and incubated for one or four hours at 37° C. with 5% CO2.
(§2) The two cell types were first infected with increasing concentrations of the acute cystitis strain E. coli CY-17 (10^2-10^4 cfu/ml) for 1 to 4 hours. NK1R and SP expression was used as a read out of the cellular response. […] A concentration of 10^4 cfu/ml of CY-17 and four hours of infection was chosen for further studies. Under these conditions, there was little cytotoxicity. To further characterize the neuropeptide response to bladder infection, the in vitro analysis was extended to include GALR2, OrxR2 and TAS2R43. Confocal microscopy was used in this instance. Infected cells were fixed (3.7% formaldehyde, 15 min), permeabilized (0.25% triton X-100, 5% FBS, 10 min), blocked (5% FBS, 1 h at RT), incubated overnight with primary antibodies in 5% FBS: Anti-NK1R (1:100, SC-15323, Santa Cruz), anti-SP, (1:200, ORB11399, Biorbyt), anti-orexin receptor 2, (1:200, AB10470, Abcam), anti-TAS2R43, (1:200, AB65513, Abcam), and anti-GALR2 antibodies (1:100, AB136264, Abcam). Appropriate fluorescently labeled secondary antibodies were used (Alexa Fluor® 488 goat anti-rabbit IgG, A-11034; Life Technologies, (1 hour at Room Temperature). After nuclear staining (DRAQ5, 1:1000, Abcam) slides were mounted (Fluoromount, Sigma-Aldrich), imaged by laser scanning confocal microscopy (MSM510 META confocal microscope, Carl Zeiss) and quantified by ImageJ software 1.46r (NIH).
(§3) HTB-9 cells and differentiated SH-SY5Y cells were pre-treated with SR140333, or IL-1RA Anakinra (500 ng/ml) for 30 minutes before infection with CY17 (10^4 cfu/ml, four hours), or treatment with exogenous recombinant SP (R&D System) or IL-1β (Abnova) (20 ng/ml, four hours). After infection, cells were infected with CY17 and the NK1R, SP and IL-1β response was quantified by confocal imaging. IL-1β- and SP secretion was quantified by ELISA, in culture supernatants. In nerve- and bladder epithelial cells, SR140333 inhibited the SP/NK1R response to infection, consistent with an autocrine activation loop involving SP/NK1R as shown by confocal imaging (FIG. 10a). […] SP activated IL-1β expression and secretion in bladder epithelial cells but had no effect on IL-1β on nerve cells. (*=P<0.05, **=P<0.01, ***=P<0.001, Two-tailed t-test for confocal imaging data and Mann-Whitney U-test for ELISAs.
Furthermore, to examine if the effects of NK1R inhibition can be generalized, we used two additional NK1R antagonists (CP99994 and L703.303). […]

[2] = tested on: HTB-9 cells; experiment: Pre-treatment of HTB-9 bladder epithelial cells before CY17 infection (confocal imaging, ELISA); type: cell-based, human
Protocol: as §1, §2, §3
Furthermore, to examine if the effects of NK1R inhibition can be generalized, we used two additional NK1R antagonists (CP99994 and L703.303). HTB-9 cells and differentiated SH-SY5Y cells were pre-treated with SR140333, CP99994, L-703.606 or IL-1RA Anakinra (500 ng/ml) for 30 minutes before infection with CY17 (10^4 cfu/ml, four hours), or treatment with exogenous recombinant SP (R&D System) or IL-1β (Abnova) (20 ng/ml, four hours).

[3] = pre-treated 30 minutes before CY17 (10^4 cfu/ml, four hours)
[4] = pre-treated before CY17 infection

CC(C)Oc1cccc(CC(=O)N2CCC[C@](CC[N+]34CCC(c5ccccc5)(CC3)CC4)(c3ccc(Cl)c(Cl)c3)C2)c1.[Cl-] [SR140333, 1-[2-[(3S)-3-(3,4-Dichlorophenyl)-1-[2-[3-(1-methylethoxy)phenyl]acetyl]-3-piperidinyl]ethyl]-4-phenyl-1-azoniabicyclo[2.2.2]octane chloride]
SP/NK1R response to infection (confocal imaging) [1, 3]: inhibited | SP secretion (ELISA, culture supernatants) [1, 4]: decrease | SP/NK1R response to infection (confocal imaging) [2, 3]: inhibited | IL-1β secretion (ELISA, culture supernatants) [2, 4]: inhibited; also recorded: decreased | SP secretion (ELISA, culture supernatants) [2, 4]: decreased
